Assay results published in US5189169A (priority 1991, dated 1993).
“And” between values parts separate entries of the source, which are not always exact repeats. Identical values can stand only once.

What was measured:
[1] = test system: yellow nutsedge; design: species or system Cyperus esculentus; settings: in vivo
[2] = test system: three broadleaf weeds (morning glory, mustard, velvetleaf); design: species or system Ipomoea purpurea, Brassica kaber, Abutilon theophrasti; settings: in vivo
[3] = test system: three grassy weeds (wild oat, watergrass, foxtail); design: species or system Avena fatua, Echinochloa crusgalli, Setaria viridis; settings: in vivo
[4] = test system: three broadleaf weeds (morning glory, mustard, velvetleaf); design: species or system Ipomoea purpurea, Brassica kaber, Abutilon theophrasti; settings: in vivo; remark: listed apart in the source
[5] = test system: yellow nutsedge; design: species or system Cyperus esculentus; settings: in vivo; remark: listed apart in the source
[6] = test system: three broadleaf weeds: wild mustard, redroot pigweed and curly dock; experiment: Post-emergence herbicidal activity, broadleaf weeds (Table III); format: in vivo, Brassica kaber, Amaranthus retroflexus, Rumex crispus; settings: 2.24 kg/ha, 2-3 weeks after treatment
Method: (§1) The herbicidal effect was observed by comparing the extent of weed control in test flats treated with the compounds against that occurring in similar non-treated control flats. All were applied at 3.57 lb/A (4 kg/ha) to pre-emergence and post-emergence screening flats. An 80 gal/A (748.3 1/ha) spray volume was utilized. Post-emergence flats were seeded 12 days prior to treatment. Pre-emergence flats were seeded one day prior to treatment. Overhead watering of pre-emergence flats and soil surface watering of post-emergence flats, so as to avoid wetting the foliage, were carried out for the duration of the test.
(§2) Weed seeds were planted in a flat at a seed depth of 0.5 inch (1.3 cm). Soil for flats was prepared using loam soil fortified with 17-17-17 fertilizer (N-P2 O5 -K2 O on a weight basis) and Captan 80W fungicide. The test weeds were as follows:
(§3) The spray solutions were prepared by dissolving 240 mg of test compound in 20 ml of acetone containing 1% polyoxyethylene sorbitan monolaurate emulsifier, then adding 20 ml of water to the resulting solution. The spray solutions were applied using a linear spray table. Pre-emergence flats are raised to the level of the post-emergence foliage canopy by setting the flats on a wooden block.
(§4) The degree of weed control was visually assessed and recorded as percentage control compared to the growth of the same species in an untreated check flat of the same age. The rating scale ranges from 0 to 100%, where 0 equals no effect with plant growth equal to the untreated control, and 100 equals complete kill.
(§5) Compounds 68 to 145 in Table I were tested generally similarly to Compounds No. 1 to 67 with the following differences: The rate of application was 2 lb/acre (2.24 kg/ha), no 6-day evaluations were made, and the weeds were:
Three broadleaf weeds: wild mustard, redroot pigweed (Amaranthus retroflexus) and curly dock (Rumex crispus).
(§6) Ratings were taken 2-3 weeks after treatment.

[7] = test system: four grassy weeds: wild oat, watergrass, green foxtail and crabgrass; experiment: Post-emergence herbicidal activity, grassy weeds (Table III); format: in vivo; settings: 2.24 kg/ha, 2-3 weeks after treatment
Method: as §1, §2, §3, §4, §5
Four grassy weeds: wild oat, watergrass, green foxtail and crabgrass (Digitaria sanguinalis);
as §6

Compound	% Control, Post-emergence, NS [1]	% Control, Pre-emergence, BL avg. [2]	% Control, Pre-emergence, GR avg. [3]	% Control, Post-emergence, BL avg. [4]	% Control, Pre-emergence, NS [5]	% Control, Post-Emergence, BL Avg. [6]	% Control, Post-Emergence, GR Avg. [7]
CCCSP(=O)(N(CCC)CCC)N(C)c1ccc(C(C)C)cc1 (stereo not shown) [Compound 58]	0%	0%	0%	70% and 61%	0%		
CCCSP(=O)(N(CCC)CCC)N(CC)c1ccc(F)cc1 (stereo not shown) [Compound 54]	0%	8%	0%	100%	0%		
CCCN(CCC)P(=O)(SC(C)CC)N(C)c1ccccc1 (stereo not shown) [Compound 122]						79%	56%
CCCN(CCC)P(=O)(SCC)N(CC)CC (stereo not shown) [Compound 144]						78%	59%
CCCSP(=O)(N(CCC)CCC)N(C)c1cc(Cl)ccc1Cl (stereo not shown) [Compound 34]	0%	0%	0%	80% and 93%	0%		
CCCCN(CC)P(=O)(SCC)N(CC)CC (stereo not shown) [Compound 138]						69%	63%
CCN(CC)P(=O)(SC(C)C)N(CC)CC [Compound 103]						73%	67%
CCCSP(=O)(N(CCC)CCC)N(C)c1ccc(OC)cc1C (stereo not shown) [Compound 65]	0%	0%	0%	70% and 76%	0%		
CCCCSP(=O)(N(C)C)N(CCCC)CCCC (stereo not shown) [Compound 110]						98%	93%
CCCCN(CC)P(=O)(SC(C)c1ccccc1)N(CC)CC (stereo not shown) [Compound 143]						69%	52%
CCCSP(=O)(N(CCC)CCC)N1CCCCC1 (stereo not shown) [Compound 73]						87%	55%
CCCCN(CCCC)P(=O)(SCc1ccccc1)N(C)C (stereo not shown) [Compound 113]						83%	48%
CCCCN(CCCC)P(=O)(SCC)N(C)C (stereo not shown) [Compound 107]						98%	64%
CCCCN(CCCC)P(=O)(SC(C)(C)C)N(C)C (stereo not shown) [Compound 106]						91%	65%
CCCCN(CC)P(=O)(SCCC)N(CC)CC (stereo not shown) [Compound 139]						70%	65%
CCCN(CCC)P(=O)(Sc1ccccc1Br)N(CCC)CCC [Compound 8]	0%	0%	0%	50% and 55%	0%		
CCCCN(CCC(C)C)P(=O)(SCCC)N(CCCC)CCC(C)C [Compound 52]	0%	0%	0%	90% and 86%	0%		
CCCN(CCC)P(=O)(SCC)N1CCCCC1 (stereo not shown) [Compound 72]						86%	50%
CCCCCN(CCCCC)P(=O)(SCCC)N(C)c1ccc(Cl)cc1 (stereo not shown) [Compound 17]	10% and 0%	33%	57%	50% and 43%	0%		
CCCCSP(=O)(N(CC)CC)N1CCCCCC1 (stereo not shown) [Compound 93]						99%	73%
CCN(CC)P(=O)(SCc1ccccc1)N(CC)CC [Compound 94]						70%	30%
CCN(CC)P(=O)(SC(C)C)N1CCCCCC1 (stereo not shown) [Compound 101]						100%	69%

Compound	% Control, Post-emergence, NS [1]	% Control, Pre-emergence, BL avg. [2]	% Control, Pre-emergence, GR avg. [3]	% Control, Post-emergence, BL avg. [4]	% Control, Pre-emergence, NS [5]	% Control, Post-Emergence, BL Avg. [6]	% Control, Post-Emergence, GR Avg. [7]
CCCSP(=O)(N(CCC)CCC)N(C)c1ccc(OC(F)(F)F)c(Cl)c1 (stereo not shown) [Compound 66]	0% and 5%	10%	0%	90% and 98%	0%		
CCCSP(=O)(N(CCC)CCC)N(C)c1ccc(F)cc1F (stereo not shown) [Compound 19]	0%	0%	0%				
CCCCSP(=O)(N(CC)CC)N(CC)CCCC (stereo not shown) [Compound 141]						86%	65%
CCCSP(=O)(N(CC)CC)N(CC)CC [Compound 68]						87%	40%
CCCSP(=O)(N(CCC)CCC)N(C)c1ccccc1C(C)C (stereo not shown) [Compound 56]	0%	6%	31%	85% and 90%	0%		
C=CCSP(=O)(N(C)C)N(CCCC)CCCC (stereo not shown) [Compound 112]						87%	56%
CCCCN(CCCC)P(=O)(SCCC)N(C)c1ccc(Cl)c(Cl)c1 (stereo not shown) [Compound 21]	0%	0%	0%	20% and 40%	0%		
CCCN(CCC)P(=O)(SC(C)C)N(C)c1ccccc1 (stereo not shown) [Compound 120]						71%	50%
CCCC(CC)SP(=O)(N(CC)CC)N(CC)CC (stereo not shown) [Compound 105]						73%	54.5%
CCCSP(=O)(N(CCC)CCC)N(C)c1ccc(C#N)cc1 (stereo not shown) [Compound 41]	0%	0%	0%		0%		
C=CCSP(=O)(N(CCC)CCC)N1CCCCCC1 (stereo not shown) [Compound 100]						95%	63%
CCCCCCSP(=O)(N(CCCC)CCCC)N(CCCC)CCCC [Compound 134]						90%	56%
CCCCN(CC)P(=O)(SC(C)C)N(CC)CC (stereo not shown) [Compound 140]						66%	68%
CCCN(CCC)P(=O)(Sc1cccc(Cl)c1)N(CCC)CCC [Compound 60]	0%	13%	0%	75% and 73%	0%		
CCCSP(=O)(N(CC)CC)N1CCCCCC1 (stereo not shown) [Compound 92]						86%	62%
CCCCN(c1ccc(F)cc1)P(=O)(SCCC)N(CCC)CCC (stereo not shown) [Compound 55]	0%	3%	13%	90% and 86%	5%		
CCCCN(CCCC)P(=O)(SCCC)N(C)c1ccc(Cl)cc1OC (stereo not shown) [Compound 18]	0%	0%	0%	30% and 60%	0%		
CCCCN(CCCC)P(=O)(SC1CCCCC1)N(CCCC)CCCC [Compound 136]						90%	50%
CCCCSP(=O)(N(CCC)CCC)N(C)c1ccccc1 (stereo not shown) [Compound 121]						72%	59%
CCCCN(CC)P(=O)(SC1CCCCC1)N(CCC)CCC (stereo not shown) [Compound 137]						88%	53%
CCCCSP(=O)(N(CCC)CCC)N1CCCCC1 (stereo not shown) [Compound 74]						100%	47%
CCC(C)SP(=O)(N(CC)CC)N(CC)CC (stereo not shown) [Compound 104]						87%	77%
